According to US20140051679A1, “KINASE INHIBITORS AND METHOD OF TREATING CANCER WITH SAME” (UNIVERISTY HEALTH NETWORKS, priority 2011, published 2014):

Assays:
[1] = test system: MDA-MB-468 breast cancer cells; assay: Cell growth inhibition, Sulforhodamine B assay, MDA-MB-468; assay type: cell-based; conditions: Homo sapiens, 120 h, 5 days culture, SRB assay, read-out: Cell Line GI50 Range MDA-MB-468
human TTK = target: T1, human TTK (Homo sapiens, UniProt P33981); assay: TTK inhibition assay (indirect ELISA); assay type: biochemical; conditions: GST-TTK 0.68 nM, 16 μM ATP; read-out: IC50 Ranges TTK
T1 construct: amino terminal GST fusion of full length human TTK; purchased Invitrogen
T1 sequence (P33981 1-857): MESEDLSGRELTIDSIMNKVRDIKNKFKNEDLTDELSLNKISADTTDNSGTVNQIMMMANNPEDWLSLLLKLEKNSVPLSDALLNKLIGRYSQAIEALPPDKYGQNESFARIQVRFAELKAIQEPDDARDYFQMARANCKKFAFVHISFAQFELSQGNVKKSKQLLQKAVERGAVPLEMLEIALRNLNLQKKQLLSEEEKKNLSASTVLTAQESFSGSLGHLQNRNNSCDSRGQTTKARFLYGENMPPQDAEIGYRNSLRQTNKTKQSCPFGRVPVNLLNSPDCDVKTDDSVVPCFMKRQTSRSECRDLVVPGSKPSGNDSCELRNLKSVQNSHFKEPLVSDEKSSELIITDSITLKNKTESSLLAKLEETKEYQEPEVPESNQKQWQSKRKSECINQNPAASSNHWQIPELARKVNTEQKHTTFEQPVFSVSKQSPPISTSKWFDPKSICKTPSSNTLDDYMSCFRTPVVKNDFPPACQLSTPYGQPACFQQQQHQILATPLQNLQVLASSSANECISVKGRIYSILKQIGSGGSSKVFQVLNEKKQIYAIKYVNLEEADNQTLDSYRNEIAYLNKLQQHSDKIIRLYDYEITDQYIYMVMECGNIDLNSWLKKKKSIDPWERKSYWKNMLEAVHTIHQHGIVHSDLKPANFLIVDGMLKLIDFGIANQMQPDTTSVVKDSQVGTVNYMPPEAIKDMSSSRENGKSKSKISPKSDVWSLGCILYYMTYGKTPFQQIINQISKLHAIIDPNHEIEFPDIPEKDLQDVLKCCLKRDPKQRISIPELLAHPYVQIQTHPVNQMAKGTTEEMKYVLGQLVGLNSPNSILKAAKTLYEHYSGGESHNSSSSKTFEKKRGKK

Aurora B = target: T2, Aurora B (Homo sapiens, UniProt Q96GD4); assay: Aurora B inhibition assay (Z-Lyte); assay type: biochemical; conditions: 28 nM Aurora B, 128 μM ATP; read-out: IC50 Ranges Aurora B
T2 construct: purchased Invitrogen PV3970
Procedure: Aurora B inhibition was determined using the Z-Lyte assay kit from Invitrogen. The assay was performed using the recommended manufacturer's instructions with 128 μM ATP and 28 nM Aurora B (Invitrogen cat #PV3970). The % inhibition values were determined according to the manufacturer's directions and IC50 values were obtained using a non-linear 4 point logistic curve fit (XLfit4, IDBS)

[2] = test system: OVCAR-3 ovarian cancer cells; assay: Cell growth inhibition, Sulforhodamine B assay, OVCAR-3; assay type: cell-based; conditions: Homo sapiens, 120 h, 5 days culture, SRB assay, read-out: Cell Line GI50 Range OVCAR-3
human PLK4 = target: T3, human PLK4 (Homo sapiens, UniProt O00444); assay: PLK4 inhibition assay (indirect ELISA); assay type: biochemical; conditions: GST-PLK4 4 nM, 15 μM ATP; read-out: IC50 Ranges PLK4
T3 construct: amino terminal GST fusion of residues 1-391 of human PLK4; made in house; host or cells: E. coli
T3 sequence (O00444 1-391): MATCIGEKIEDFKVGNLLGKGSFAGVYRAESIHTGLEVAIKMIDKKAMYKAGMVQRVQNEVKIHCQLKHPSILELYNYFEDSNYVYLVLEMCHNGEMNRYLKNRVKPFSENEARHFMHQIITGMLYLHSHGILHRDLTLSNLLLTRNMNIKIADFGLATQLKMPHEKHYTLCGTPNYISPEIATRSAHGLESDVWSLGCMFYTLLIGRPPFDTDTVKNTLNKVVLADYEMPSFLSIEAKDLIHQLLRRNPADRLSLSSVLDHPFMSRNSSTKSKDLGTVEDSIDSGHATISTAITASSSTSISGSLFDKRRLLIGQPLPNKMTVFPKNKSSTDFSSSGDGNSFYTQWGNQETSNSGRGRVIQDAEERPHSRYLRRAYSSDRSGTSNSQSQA
Procedure, shortened: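 Compounds were tested either at a single 10 μM dose or across 10-point titrations (typically 0.5 to 0.001 μM), preincubated 15 min with 4 nM GST-PLK4 (human 1-391, dephosphorylated) before 15 μM ATP was added. MBP substrate phosphorylation over 30 min, pH 7.5 HEPES/MgCl2 buffer, read by HRP/TMB ELISA (450 nm). % inhibition vs. high-activity control; IC50 by logistic fit.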

[3] = test system: PA-1 ovarian cancer cells; assay: Cell growth inhibition, Sulforhodamine B assay, PA-1; assay type: cell-based; conditions: 120 h, 5 days culture, SRB assay, read-out: Cell Line GI50 Range PA-1
[4] = test system: HCT116 colon cancer cells; assay: Cell growth inhibition, Sulforhodamine B assay, HCT116; assay type: cell-based; conditions: Homo sapiens, HCT-116, 120 h, 5 days culture, SRB assay, read-out: Cell Line GI50 Range HCT116
HT29 colon cancer cells = assay: Cell growth inhibition, Sulforhodamine B assay, HT29; assay type: cell-based; conditions: Homo sapiens, HT-29, 120 h, 5 days culture, SRB assay, read-out: Cell Line GI50 Range HT29
[5] = test system: MDA-MB-231 breast cancer cells; assay: Cell growth inhibition, Sulforhodamine B assay, MDA-MB-231; assay type: cell-based; conditions: Homo sapiens, 120 h, 5 days culture, SRB assay, read-out: Cell Line GI50 Range MDA-MB-231

T2 sequence (Q96GD4 whole entry): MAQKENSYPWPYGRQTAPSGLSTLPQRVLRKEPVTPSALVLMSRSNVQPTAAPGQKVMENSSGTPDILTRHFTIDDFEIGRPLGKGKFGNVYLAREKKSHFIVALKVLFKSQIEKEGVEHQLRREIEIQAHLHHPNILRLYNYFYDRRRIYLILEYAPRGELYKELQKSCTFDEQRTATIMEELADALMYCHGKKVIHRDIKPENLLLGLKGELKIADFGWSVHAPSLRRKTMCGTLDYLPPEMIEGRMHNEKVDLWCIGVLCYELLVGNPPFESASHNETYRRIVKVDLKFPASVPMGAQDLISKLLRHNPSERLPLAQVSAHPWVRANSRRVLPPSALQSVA

| Structure (SMILES) | GI50 [1] | IC50 (human TTK) | IC50 (Aurora B) | GI50 [2] | IC50 (human PLK4) | GI50 [3] | GI50 [4] | GI50 (HT29 colon cancer cells) | GI50 [5] |
| --- | --- | --- | --- | --- | --- | --- | --- | --- | --- |
| CN1CCC(Oc2ccc(-c3n[nH]c4ccc(NC(=O)C(c5ccccc5F)C5CCCC5)cc34)cc2)CC1 (stereo not shown) [Example A162, 2-cyclopentyl-2-(2-fluorophenyl)-N-(3-(4-((1-methylpiperidin-4-yl)oxy)phenyl)-1H-indazol-5-yl)acetamide] | ≤ 5 µM | ≤ 5 µM |  | ≤ 5 µM | ≤ 5 µM | ≤ 5 µM | ≤ 5 µM | ≤ 5 µM | ≤ 5 µM |
| O=C(Nc1ccc2[nH]nc(-c3ccc(OC4CCN(CCF)CC4)cc3)c2c1)C(c1ccsc1)N1CCCC1 (stereo not shown) [Example A102, N-(3-(4-((1-(2-fluoroethyl)piperidin-4-yl)oxy)phenyl)-1H-indazol-5-yl)-2-(pyrrolidin-1-yl)-2-(thiophen-3-yl)acetamide] | ≤ 5 µM | ≤ 5 µM | ≤ 5 µM | 5 to 20 µM | ≤ 5 µM | ≤ 5 µM | ≤ 5 µM | ≤ 5 µM |  |
| CN1CCC(Oc2ccc(-c3n[nH]c4ccc(C(=O)N[C@H](CCO)c5ccccc5)cc34)cc2Cl)CC1 [Example A202, (R)-3-(3-chloro-4-((1-methylpiperidin-4-yl)oxy)phenyl)-N-(3-hydroxy-1-phenylpropyl)-1H-indazole-5-carboxamide] | ≤ 5 µM | ≤ 5 µM | ≤ 5 µM | ≤ 5 µM | ≤ 5 µM | ≤ 5 µM | ≤ 5 µM |  | ≤ 5 µM |
| O=C(Nc1ccc2[nH]nc(-c3ccc(N4CCC(O)CC4)cc3)c2c1)C(c1ccccc1)C1CC1 (stereo not shown) [Example A103, 2-cyclopropyl-N-(3-(4-(4-hydroxypiperidin-1-yl)phenyl)-1H-indazol-5-yl)-2-phenylacetamide] | ≤ 5 µM | ≤ 5 µM | ≤ 5 µM |  | ≤ 5 µM | ≤ 5 µM | ≤ 5 µM | ≤ 5 µM | ≤ 5 µM |
| O=C(NC(c1ccccc1)C1CCC1)c1ccc2[nH]nc(-c3ccc(N4CCC(O)CC4)cc3)c2c1 (stereo not shown) [Example A100, N-(cyclobutyl(phenyl)methyl)-3-(4-(4-hydroxypiperidin-1-yl)phenyl)-1H-indazole-5-carboxamide] | ≤ 5 µM | ≤ 5 µM | ≤ 5 µM |  | ≤ 5 µM | ≤ 5 µM | ≤ 5 µM | ≤ 5 µM | ≤ 5 µM |
| COc1cc(-c2n[nH]c3ccc(C(=O)NC(c4ccccc4)C4CC4)cc23)ccc1OC1CCN(C2COC2)CC1 (stereo not shown) [Example A194, N-(cyclopropyl(phenyl)methyl)-3-(3-methoxy-4-((1-(oxetan-3-yl)piperidin-4-yl)oxy)phenyl)-1H-indazole-5-carboxamide] | ≤ 5 µM | ≤ 5 µM | ≤ 5 µM | ≤ 5 µM | ≤ 5 µM | ≤ 5 µM | ≤ 5 µM |  | ≤ 5 µM |
| CN1CCC(Oc2ccc(-c3n[nH]c4ccc(C(=O)NC(c5ccccn5)C5CC5)cc34)cc2Cl)CC1 (stereo not shown) [Example A198, 3-(3-chloro-4-((1-methylpiperidin-4-yl)oxy)phenyl)-N-(cyclopropyl(pyridin-2-yl)methyl)-1H-indazole-5-carboxamide] | ≤ 5 µM | ≤ 5 µM | ≤ 5 µM | ≤ 5 µM | ≤ 5 µM | ≤ 5 µM | ≤ 5 µM |  | ≤ 5 µM |
| COc1ccc(NC(=O)Nc2ccc3[nH]nc(-c4ccc(OC5CCN(C)CC5)cc4)c3c2)c(C)c1 [Example A81, 1-(4-methoxy-2-methylphenyl)-3-(3-(4-((1-methylpiperidin-4-yl)oxy)phenyl)-1H-indazol-5-yl)urea] | ≤ 5 µM | ≤ 5 µM | ≤ 5 µM |  | ≤ 5 µM | ≤ 5 µM | ≤ 5 µM | ≤ 5 µM | 5 to 20 µM |
| COCCN1CCC(Oc2ccc(-c3n[nH]c4ccc(NC(=O)[C@H](OC)c5ccccc5)cc34)cc2)CC1 [Example A107, (R)-2-methoxy-N-(3-(4-((1-(2-methoxyethyl)piperidin-4-yl)oxy)phenyl)-1H-indazol-5-yl)-2-phenylacetamide] | ≤ 5 µM | ≤ 5 µM | ≤ 5 µM |  | ≤ 5 µM | ≤ 5 µM | ≤ 5 µM | ≤ 5 µM | 5 to 20 µM |

More lines, now with the values ahead:

| GI50 [1] | IC50 (human TTK) | IC50 (Aurora B) | GI50 [2] | IC50 (human PLK4) | GI50 [3] | GI50 [4] | GI50 (HT29 colon cancer cells) | GI50 [5] | Structure (SMILES) |
| --- | --- | --- | --- | --- | --- | --- | --- | --- | --- |
| ≤ 5 µM | ≤ 5 µM | ≤ 5 µM | ≤ 5 µM | ≤ 5 µM | ≤ 5 µM | ≤ 5 µM |  |  | CC[C@@H](NC(=O)c1ccc2[nH]nc(-c3ccc(OC4CCN(C5COC5)CC4)cc3)c2c1)c1ccccc1Cl [Example A192, (R)—N-(1-(2-chlorophenyl)propyl)-3-(4-((1-(oxetan-3-yl)piperidin-4-yl)oxy)phenyl)-1H-indazole-5-carboxamide] |
| ≤ 5 µM | ≤ 5 µM | ≤ 5 µM | ≤ 5 µM | ≤ 5 µM | ≤ 5 µM | ≤ 5 µM | ≤ 5 µM |  | CN1CCC(Oc2ccc(-c3n[nH]c4ccc(C(=O)NC(c5ccsc5)C5CCC5)cc34)cc2)CC1 (stereo not shown) [Example A121] |
| ≤ 5 µM | ≤ 5 µM |  | 5 to 20 µM | ≤ 5 µM | ≤ 5 µM | ≤ 5 µM | ≤ 5 µM | ≤ 5 µM | CN1CCC(Oc2ccc(-c3n[nH]c4ccc(C(=O)NCc5ccccc5CO)cc34)cc2)CC1 [Example A142, N-(2-(hydroxymethyl)benzyl)-3-(4-((1-methylpiperidin-4-yl)oxy)phenyl)-1H-indazole-5-carboxamide] |
| ≤ 5 µM | ≤ 5 µM | ≤ 5 µM | ≤ 5 µM | ≤ 5 µM | ≤ 5 µM | ≤ 5 µM |  | ≤ 5 µM | CN1CCC(Oc2ccc(-c3n[nH]c4ccc(C(=O)NC(c5ccccc5Cl)C5CCCC5)cc34)cc2)CC1 (stereo not shown) [Example A199, N-((2-chlorophenyl)(cyclopentyl)methyl)-3-(4-((1-methylpiperidin-4-yl)oxy)phenyl)-1H-indazole-5-carboxamide] |
